This note sets out measurements from ChEMBL document CHEMBL1275296, “Synthesis and antimicrobial studies of thiazolotriazinones” (2010).

In experiment [1] the test system is Klebsiella pneumoniae. Put plainly: Antibacterial activity against Klebsiella pneumoniae after 24 hrs by broth dilution method. The class given is functional. (Broth dilution looks for growth in wells or tubes with falling amounts of substance.)
Experiment [2] concerns Candida albicans. Kind of experiment: Antifungal activity against Candida albicans by measuring inhibition zone after 48 hrs. It is filed as functional.
In experiment [3] the test system is Streptococcus pyogenes. Kind of experiment: Antibacterial activity against Streptococcus pyogenes after 24 hrs. The class given is functional.
Experiment [4] concerns Aspergillus fumigatus. Kind of experiment: Antifungal activity against Aspergillus fumigatus after 48 hrs. The class given is functional.
The subject of experiment [5] is Staphylococcus aureus. Kind of experiment: Antibacterial activity against Staphylococcus aureus after 24 hrs. The class given is functional.
The subject of experiment [6] is Pseudomonas aeruginosa. Put plainly: Antibacterial activity against Pseudomonas aeruginosa after 24 hrs. The class given is functional.
For experiment [7], the system named is Staphylococcus aureus. Put plainly: Antibacterial activity against Staphylococcus aureus after 24 hrs by broth dilution method. The class given is functional.
Experiment [8] has as its system Talaromyces marneffei. Put plainly: Antifungal activity against Penicillium marneffei at >100 ug/mL after 48 hrs. The class given is functional, organism-based.
For experiment [9], the system named is Escherichia coli. Kind of experiment: Antibacterial activity against Escherichia coli after 24 hrs. The class given is functional.
Experiment [10] concerns Pseudomonas aeruginosa. Put plainly: Antibacterial activity against Pseudomonas aeruginosa after 24 hrs by broth dilution method. The class given is functional.
For experiment [11], the system named is Trichophyton mentagrophytes. Kind of experiment: Antifungal activity against Trichophyton mentagrophytes after 48 hrs. It is filed as functional.
In experiment [12] the test system is Aspergillus flavus. Put plainly: Antifungal activity against Aspergillus flavus at >100 ug/mL after 48 hrs. The class given is functional, organism-based.
For experiment [13], the system named is Escherichia coli. Kind of experiment: Antibacterial activity against Escherichia coli after 24 hrs by broth dilution method. It is filed as functional.
The test system of experiment [14] is Streptococcus pyogenes. Kind of experiment: Antibacterial activity against Streptococcus pyogenes after 24 hrs by broth dilution method. It is filed as functional.
Experiment [15] concerns Trichophyton mentagrophytes. Kind of experiment: Antifungal activity against Trichophyton mentagrophytes by measuring inhibition zone after 48 hrs. The class given is functional.
Experiment [16] relates to Candida albicans. Kind of experiment: Antifungal activity against Candida albicans after 48 hrs. The class given is functional.
The subject of experiment [17] is Klebsiella pneumoniae. Put plainly: Antibacterial activity against Klebsiella pneumoniae after 24 hrs. It is filed as functional.
Experiment [18] has as its system Aspergillus fumigatus. Kind of experiment: Antifungal activity against Aspergillus fumigatus by measuring inhibition zone after 48 hrs. The class given is functional.
Experiment [19] deals with Aspergillus flavus. Kind of experiment: Antifungal activity against Aspergillus flavus by measuring inhibition zone after 48 hrs. The class given is functional.
Experiment [20] has as its system Talaromyces marneffei. Kind of experiment: Antifungal activity against Penicillium marneffei by measuring inhibition zone after 48 hrs. It is filed as functional.
Experiment [21] deals with Candida albicans. Kind of experiment: Antifungal activity against Candida albicans at >100 ug/mL after 48 hrs. It is filed as functional, organism-based.
For experiment [22], the system named is Klebsiella pneumoniae. Put plainly: Antibacterial activity against Klebsiella pneumoniae at >100 ug/mL after 24 hrs by broth dilution method. The class given is functional, organism-based.
The test system of experiment [23] is Aspergillus fumigatus. Kind of experiment: Antifungal activity against Aspergillus fumigatus at >100 ug/mL after 48 hrs. The class given is functional, organism-based.
In experiment [24] the test system is Aspergillus flavus. Put plainly: Antifungal activity against Aspergillus flavus after 48 hrs. It is filed as functional.
In experiment [25] the test system is Talaromyces marneffei. Put plainly: Antifungal activity against Penicillium marneffei after 48 hrs. It is filed as functional.
In experiment [26] the test system is Trichophyton mentagrophytes. Put plainly: Antifungal activity against Trichophyton mentagrophytes at >100 ug/mL after 48 hrs. The class given is functional, organism-based.
In experiment [27] the test system is Escherichia coli. Put plainly: Antibacterial activity against Escherichia coli at >100 ug/mL after 24 hrs by broth dilution method. It is filed as functional, organism-based.
Experiment [28] deals with Pseudomonas aeruginosa. Kind of experiment: Antibacterial activity against Pseudomonas aeruginosa at >100 ug/mL after 24 hrs by broth dilution method. It is filed as functional, organism-based.

The structures appear in SMILES notation. Converted amounts (≈) assume the structure as drawn. The source made the active and inactive calls. The rule behind the calls is not given here.

As a reminder, the MIC is the lowest concentration found to suppress growth. Low readings indicate greater potency, high ones weaker potency. Turning to `O=c1c(Cc2ccc(Cl)cc2)nnc2scc(-c3ccc(Br)cc3)n12`, the MIC against Klebsiella pneumoniae [1] is 6.25 mg/L (≈ 14.4 µM); with Aspergillus fumigatus [4], 25 mg/L (≈ 57.8 µM); in the experiment with Staphylococcus aureus [7] it was 6.25 mg/L (≈ 14.4 µM); in the experiment with Pseudomonas aeruginosa [10], 12.5 mg/L (≈ 28.9 µM); in experiment [11] it was 12.5 mg/L (≈ 28.9 µM); against Escherichia coli [13], 25 mg/L (≈ 57.8 µM). Also, the MIC with Streptococcus pyogenes [14] and with Candida albicans [16] was 6.25 mg/L (≈ 14.4 µM) each time. The “inhibition zone (IZ)” value in the experiment on Candida albicans [2] is 17 mm; in the experiment with Streptococcus pyogenes [3], 21 mm; with Staphylococcus aureus [5], 23 mm; in the experiment with Pseudomonas aeruginosa [6], 14 mm; with Escherichia coli [9] it was 9 mm; in [15] it was 12 mm. In addition, the “inhibition zone (IZ)” value with Klebsiella pneumoniae [17] was 19 mm; in the experiment with Aspergillus fumigatus [18], 8 mm. The inhibition entry in the experiment on Talaromyces marneffei [8] and with Aspergillus flavus [12] was “inactive” throughout.
Consider `O=c1c(Cc2ccc(Cl)cc2Cl)nnc2scc(-c3ccc([N+](=O)[O-])cc3)n12`, for which the “inhibition zone (IZ)” value turned out to be 17 mm with Streptococcus pyogenes [3]; 20 mm in the experiment with Staphylococcus aureus [5]; 27 mm with Pseudomonas aeruginosa [6]; 15 mm with Escherichia coli [9]; 14 mm in the experiment on Aspergillus flavus [19]; 10 mm in the experiment on Talaromyces marneffei [20]. In addition, the MIC against Staphylococcus aureus [7] was 6.25 mg/L (≈ 14.4 µM); with Pseudomonas aeruginosa [10] it was 6.25 mg/L (≈ 14.4 µM); in the experiment on Escherichia coli [13] it was 12.5 mg/L (≈ 28.8 µM); in the experiment with Streptococcus pyogenes [14], 6.25 mg/L (≈ 14.4 µM); against Aspergillus flavus [24] it was 12.5 mg/L (≈ 28.8 µM); in the experiment with Talaromyces marneffei [25], 12.5 mg/L (≈ 28.8 µM). Moreover, the inhibition result (in the experiment with Candida albicans [21]; with Klebsiella pneumoniae [22]; with Aspergillus fumigatus [23]; in experiment [26]) was “inactive” in each case.
As to `COc1ccc(-c2csc3nnc(Cc4ccc(Cl)cc4)c(=O)n23)cc1`, the MIC in the experiment on Klebsiella pneumoniae [1] worked out at 6.25 mg/L (≈ 16.3 µM); in the experiment with Staphylococcus aureus [7] it was 12.5 mg/L (≈ 32.6 µM); with Pseudomonas aeruginosa [10] it was 12.5 mg/L (≈ 32.6 µM); in experiment [11] it was 12.5 mg/L (≈ 32.6 µM); in the experiment on Streptococcus pyogenes [14] it was 25 mg/L (≈ 65.1 µM); with Aspergillus flavus [24] it was 6.25 mg/L (≈ 16.3 µM). The MIC in the experiment on Candida albicans [16] was 12.5 mg/L (≈ 32.6 µM); against Talaromyces marneffei [25], 25 mg/L (≈ 65.1 µM). The “inhibition zone (IZ)” value in the experiment with Candida albicans [2] is reported as 11 mm; in the experiment on Streptococcus pyogenes [3], 10 mm; in the experiment with Staphylococcus aureus [5], 12 mm; in the experiment with Pseudomonas aeruginosa [6], 14 mm; with Aspergillus flavus [19] it was 19 mm; in the experiment with Talaromyces marneffei [20] it was 9 mm. Moreover, the results for the “inhibition zone (IZ)” value (in experiment [15]; in the experiment with Klebsiella pneumoniae [17]) were 14 mm and 19 mm, respectively. In addition, the inhibition result with Aspergillus fumigatus [23] and in the experiment on Escherichia coli [27] was “inactive” throughout.
For the compound `COc1ccc(-c2csc3nnc(Cc4ccc(Cl)cc4Cl)c(=O)n23)cc1`, the inhibition result in the experiment with Pseudomonas aeruginosa [28], with Klebsiella pneumoniae [22] and with Aspergillus flavus [12] was “inactive” in each case. For the same compound, the “inhibition zone (IZ)” value came out at 17 mm in the experiment with Candida albicans [2]; 8 mm in the experiment with Streptococcus pyogenes [3]; 12 mm in the experiment with Staphylococcus aureus [5]; 22 mm in the experiment on Escherichia coli [9]; 9 mm in the experiment with Talaromyces marneffei [20]; 17 mm in experiment [15]. The “inhibition zone (IZ)” value in the experiment with Aspergillus fumigatus [18] amounted to 20 mm. Also, the minimum inhibitory concentration (MIC) was found to be 6.25 mg/L (≈ 14.9 µM) against Aspergillus fumigatus [4]; 12.5 mg/L (≈ 29.9 µM) against Staphylococcus aureus [7]; 6.25 mg/L (≈ 14.9 µM) in experiment [11]; 6.25 mg/L (≈ 14.9 µM) in the experiment with Escherichia coli [13]; 25 mg/L (≈ 59.8 µM) in the experiment with Streptococcus pyogenes [14]; 6.25 mg/L (≈ 14.9 µM) with Candida albicans [16]. In the experiment with Talaromyces marneffei [25], this compound registered an MIC of 25 mg/L (≈ 59.8 µM).
